One experiment addresses MLL1-WRAD2 complex (Homo sapiens (Human), UniProt P61964). As to the kind of experiment: MLL1-WRAD2 enzyme assay (in vitro methyl transferase assay). Format: biochemical. To be noted: MLL1-WRAD2 assay; read-out: In vitro MLL1 activity (IC50). The protocol: Reaction was initiated with 1 μM 3H-SAM and incubated for 1 hour at 30° C. Reaction mixture was transferred to P81 filter-paper and washed with PBS before detection.

The test system of another experiment is MV4-11 cells. As to the kind of experiment: Cell proliferation assay (ATPlite). Format: cell-based. To be noted: Homo sapiens, MV4-11, 120 h; MV-411 cells, five days; read-out: In vitro whole cell potency in MV-411 cells, (IC50). The protocol:
MV4-11 cells were seeded into a 96-well plate at 1,000 cells/well in 150 μl medium (Alpha-MEM containing 10% FBS, 100 μg/ml Normocin, and 50 μg/ml Gentamycin, Invitrogen). A HP D300 digital dispenser was used to dose cells with DMSO or test compounds across a 10-point range of concentrations (high dose of 10 μM), and cultures were grown in a humidified 5% CO2 incubator at 37° C. After five days, plates were removed from incubator and equilibrated to room temperature. An equal volume of ATPlite assay reagent was added to each well, and samples were processed according to manufacturer's instructions (Perkin Elmer). Luminescent signal was measured using an Envision plate reader equipped with a US-Luminescence detector.

A further experiment deals with WDR5 protein (Homo sapiens (Human), UniProt P61964). As to the kind of experiment: Surface Plasmon Resonance (SPR) assay. It counts as binding. To be noted: SPR; for residence time: τ=1/koff, read-out: Residence Time (t, min).
Setting [1] is: Table 1, read-out: WDR5 binding affinity (KD).
Setting [2] is: Table 2, read-out: WDR5 binding affinity SPR (KD).

Like-named read-outs stand apart in the source and are kept apart here.

Protocol for WDR5 protein: Exemplary compounds of the application were dissolved in 100% DMSO at 10 mM, assayed fresh, and then stored at −20° C. for repeat studies and other experiments. Full length WDR5 with an N-terminal His tag and C-terminal AviTag (Avidity Inc.) was expressed in E. coli with coexpression of BirA to biotin label the protein in vivo. Purification was via Ni-NTA. The purified WDR5 protein has a molecular weight of 41976 Da.
SPR studies were performed using a Biacore™ T200 instrument (GE Health Sciences Inc.). Biotinylated WDR5 protein (approximately 3000RU) was stably captured to streptavidin coupled SA chips according to the manufacture's protocol (GE Health Sciences Inc.). The running buffer used was HBS-EP (20 mM Hepes pH 7.4, 150 mM NaCl, 3 mM EDTA, 0.05% P-20) plus 5% DMSO with a flow rate of 40p1/min. For SPR analysis, 5 different concentrations of each exemplary compound of the application were sprayed into 96 or 384 well plates using an HP D300 digital dispenser. […] Curve fitting and KD calculations were performed with the Biacore T200 Evaluation software (GE Health Sciences Inc).

Turning to `CN1CCN(c2ccc(-c3cc(CNC4CCOCC4)ccc3F)cc2NC(=O)c2c[nH]c(=O)cc2C(F)(F)F)CC1` [Example 37, N-(2′-fluoro-4-(4-methylpiperazin-1-yl)-5′-(((tetrahydro-2H-pyran-4-yl)amino)methyl)-[,1′-biphenyl]-3-yl)-6-oxo-4-(trifluoromethyl)-1,6-dihydropyridine-3-carboxamide], the IC50 (commonly the concentration that gives 50% inhibition) at MLL1-WRAD2 complex was found to be 1300 nM; in the experiment on MV4-11 cells it was 2910 nM. Also, the Kd (commonly a measure of binding affinity in units of concentration) turned out to be 5 nM on WDR5 protein (setting [1]) and 6 nM on WDR5 protein (setting [2]). Also, the residence time (commonly how long the partners stay bound on average) on WDR5 protein amounted to 4.38 min.

With `CN1CCN(c2ccc(-c3ccc(CN4CCOCC4)cc3F)cc2NC(=O)c2c[nH]c(=O)cc2C(F)(F)F)CC1` [Example 38, N-(2′-fluoro-4-(4-methylpiperazin-1-yl)-4′-(morpholinomethyl)-[1,1′-biphenyl]-3-yl)-6-oxo-4-(trifluoromethyl)-1,6-dihydropyridine-3-carboxamide], the IC50 at MLL1-WRAD2 complex was 3990 nM; in the experiment on MV4-11 cells it was greater than 10000 nM. Besides, the Kd on WDR5 protein (setting [1]) and at WDR5 protein (setting [2]) was 8 nM each time. The residence time on WDR5 protein worked out at 3.42 min.

With `CN1CCN(c2ccc(-c3ccnc(N4CCOCC4)c3F)cc2NC(=O)c2c[nH]c(=O)cc2C(F)(F)F)CC1` [Example 39, N-(5-(3-fluoro-2-morpholinopyridin-4-yl)-2-(4-methylpiperazin-1-yl)phenyl)-6-oxo-4-(trifluoromethyl)-1,6-dihydropyridine-3-carboxamide], the IC50 on MLL1-WRAD2 complex was 2510 nM; with MV4-11 cells it was greater than 10000 nM. For the same compound, the Kd at WDR5 protein (setting [1]) and at WDR5 protein (setting [2]) was 28 nM each time. Also, the residence time at WDR5 protein was determined as 1.46 min.

Take `C[C@@H]1CN(c2ccc(-c3cc(CNC4CCCCC4)ccc3F)cc2NC(=O)c2c[nH]c(=O)cc2C(F)(F)F)C[C@H](C)N1C` [Example 45, N-(5′-((cyclohexylamino)methyl)-2′-fluoro-4-((3S,5R)-3,4,5-trimethylpiperazin-1-yl)-[1,1′-biphenyl]-3-yl)-6-oxo-4-(trifluoromethyl)-1,6-dihydropyridine-3-carboxamide]: the IC50 on MLL1-WRAD2 complex worked out at 514 nM; in the experiment on MV4-11 cells, 74 nM. For the same compound, the Kd on WDR5 protein (setting [1]) and on WDR5 protein (setting [2]) was 2 nM each time. Also, the residence time at WDR5 protein amounted to 31.9 min.

Consider `C[C@@H]1CN(c2ccc(-c3cc(C(=O)NC4CCCCC4)ccc3F)cc2NC(=O)c2c[nH]c(=O)cc2C(F)(F)F)C[C@H](C)N1C` [Example 46, N-(5′-(cyclohexylcarbamoyl)-2′-fluoro-4-((3S,5R)-3,4,5-trimethylpiperazin-1-yl)-[1,1′-biphenyl]-3-yl)-6-oxo-4-(trifluoromethyl)-1,6-dihydropyridine-3-carboxamide], for which the IC50 at MLL1-WRAD2 complex came to 290 nM; in the experiment on MV4-11 cells, 118 nM. The Kd at WDR5 protein (setting [1]) and at WDR5 protein (setting [2]) was 0.95 nM each time. The residence time at WDR5 protein worked out at 74.4 min.

Take `C[C@@H]1CN(c2ccc(-c3cc(C(=O)N4CCOCC4)ccc3F)cc2NC(=O)c2c[nH]c(=O)cc2C(F)(F)F)C[C@H](C)N1C` [Example 47, N-(2′-fluoro-5′-(morpholine-4-carbonyl)-4-((3S,5R)-3,4,5-trimethylpiperazin-1-yl)-[1,1′-biphenyl]-3-yl)-6-oxo-4-(trifluoromethyl)-1,6-dihydropyridine-3-carboxamide]: the IC50 at MLL1-WRAD2 complex is 2390 nM; with MV4-11 cells it was 1990 nM. Also, the Kd at WDR5 protein (setting [1]) and at WDR5 protein (setting [2]) was 8 nM each time. Besides, at WDR5 protein, the residence time is 9.58 min.

For the compound `CN1CCN(c2ccc(-c3cc(CN4CCOCC4)ccc3F)cc2NC(=O)c2c[nH]c(=O)cc2C(F)F)CC1` [Example 49, 4-(difluoromethyl)-N-(2′-fluoro-4-(4-methylpiperazin-1-yl)-5′-(morpholinomethyl)-[1,1′-biphenyl]-3-yl)-6-oxo-1,6-dihydropyridine-3-carboxamide], the IC50 at MLL1-WRAD2 complex came to 1570 nM; in the experiment with MV4-11 cells, 2240 nM. Further, the equilibrium dissociation constant (Kd) on WDR5 protein (setting [1]) and on WDR5 protein (setting [2]) was 7 nM throughout. Also, the residence time on WDR5 protein came out at 3.89 min.

Consider `C[C@@H]1CN(c2ccc(-c3cc(OCC4CC4)ncc3F)cc2NC(=O)c2c[nH]c(=O)cc2C(F)(F)F)C[C@H](C)N1C` [Example 50, N-(5-(2-(cyclopropylmethoxy)-5-fluoropyridin-4-yl)-2-((3S,5R)-3,4,5-trimethylpiperazin-1-yl)phenyl)-6-oxo-4-(trifluoromethyl)-1,6-dihydropyridine-3-carboxamide], for which the values for the IC50 on MLL1-WRAD2 complex and in the experiment on MV4-11 cells were 1790 nM and 943 nM, respectively. The Kd on WDR5 protein (setting [1]) and at WDR5 protein (setting [2]) was 4 nM throughout. On WDR5 protein, the residence time was 12.6 min.

Regarding `CCN1CCN(c2ccc(-c3cc(CNC4CCCCC4)ccc3F)cc2NC(=O)c2c[nH]c(=O)cc2C(F)(F)F)CC1` [Example 63, N-(5′-((cyclohexylamino)methyl)-4-(4-ethylpiperazin-1-yl)-2′-fluoro-[1,1′-biphenyl]-3-yl)-6-oxo-4-(trifluoromethyl)-1,6-dihydropyridine-3-carboxamide], the IC50 at MLL1-WRAD2 complex is 5630 nM; in the experiment on MV4-11 cells, greater than 10000 nM. In addition, the Kd on WDR5 protein (setting [1]) and on WDR5 protein (setting [2]) was greater than 200 nM each time.

With `CN1CCN(c2ccc(-c3cc(CN4CCN(CC5CC5)CC4)ccc3F)cc2NC(=O)c2c[nH]c(=O)cc2C(F)(F)F)CC1` [Example 66, N-(5′-((4-(cyclopropylmethyl)piperazin-1-yl)methyl)-2′-fluoro-4-(4-methylpiperazin-1-yl)-[1,1′-biphenyl]-3-yl)-6-oxo-4-(trifluoromethyl)-1,6-dihydropyridine-3-carboxamide], the IC50 at MLL1-WRAD2 complex came to 1100 nM; in the experiment on MV4-11 cells, 1130 nM. Also, the Kd on WDR5 protein (setting [1]) and at WDR5 protein (setting [2]) was 7.2 nM each time. Moreover, the residence time on WDR5 protein came out at 3.79 min.

With `CN1CCN(c2ccc(-c3cc(CN(C)C4CCCCC4)ccc3F)cc2NC(=O)c2c[nH]c(=O)cc2C(F)(F)F)CC1` [Example 67, N-(5′-((cyclohexyl(methyl)amino)methyl)-2′-fluoro-4-(4-methylpiperazin-1-yl)-[1,1′-biphenyl]-3-yl)-6-oxo-4-(trifluoromethyl)-1,6-dihydropyridine-3-carboxamide], the IC50 on MLL1-WRAD2 complex came out at 1150 nM; with MV4-11 cells, 292 nM. Also, the Kd at WDR5 protein (setting [1]) and on WDR5 protein (setting [2]) was 3.2 nM each time. In addition, the residence time at WDR5 protein turned out to be 8.8 min.

For `CN1CCN(c2ccc(-c3cc(CN4CCN(Cc5ccc(F)cc5)CC4)ccc3F)cc2NC(=O)c2c[nH]c(=O)cc2C(F)(F)F)CC1` [Example 68, N-(2′-fluoro-5′-((4-(4-fluorobenzyl)piperazin-1-yl)methyl)-4-(4-methylpiperazin-1-yl)-[,1′-biphenyl]-3-yl)-6-oxo-4-(trifluoromethyl)-1,6-dihydropyridine-3-carboxamide], the IC50 at MLL1-WRAD2 complex came out at 1890 nM; in the experiment with MV4-11 cells it was 1790 nM. The Kd at WDR5 protein (setting [1]) and at WDR5 protein (setting [2]) was 7.7 nM throughout. The residence time on WDR5 protein came out at 3.81 min.

For `CN1CCN(c2ccc(-c3cc(CN4CC[C@@H](O)C4)ccc3F)cc2NC(=O)c2c[nH]c(=O)cc2C(F)(F)F)CC1` [Example 69, (R)—N-(2′-fluoro-5′-((3-hydroxypyrrolidin-1-yl)methyl)-4-(4-methylpiperazin-1-yl)-[1,1′-biphenyl]-3-yl)-6-oxo-4-(trifluoromethyl)-1,6-dihydropyridine-3-carboxamide], the 50% inhibitory concentration (IC50) on MLL1-WRAD2 complex is 2890 nM; in the experiment with MV4-11 cells it was greater than 10000 nM. Further, the Kd on WDR5 protein (setting [1]) and on WDR5 protein (setting [2]) was 5.4 nM throughout. Besides, the residence time at WDR5 protein is 2.36 min.

Turning to `CN1CCN(c2ccc(-c3cc(CN4CCC(N5CCOCC5)CC4)ccc3F)cc2NC(=O)c2c[nH]c(=O)cc2C(F)(F)F)CC1` [Example 70, N-(2′-fluoro-4-(4-methylpiperazin-1-yl)-5′-((4-morpholinopiperidin-1-yl)methyl)-[1,1′-biphenyl]-3-yl)-6-oxo-4-(trifluoromethyl)-1,6-dihydropyridine-3-carboxamide], the IC50 was 1110 nM on MLL1-WRAD2 complex and 1140 nM in the experiment with MV4-11 cells. In addition, the Kd at WDR5 protein (setting [1]) and at WDR5 protein (setting [2]) was 4.4 nM throughout. Besides, the residence time on WDR5 protein was determined as 5.8 min.

As to `CN1CCN(c2ccc(-c3cc(CN4CC[C@@H](N(C)C)C4)ccc3F)cc2NC(=O)c2c[nH]c(=O)cc2C(F)(F)F)CC1` [Example 71, (R)—N-(5′-((3-(dimethylamino)pyrrolidin-1-yl)methyl)-2′-fluoro-4-(4-methylpiperazin-1-yl)-[1,1′-biphenyl]-3-yl)-6-oxo-4-(trifluoromethyl)-1,6-dihydropyridine-3-carboxamide], the IC50 on MLL1-WRAD2 complex stood at 2070 nM; with MV4-11 cells, 2710 nM. For the same compound, the Kd at WDR5 protein (setting [1]) and at WDR5 protein (setting [2]) was 4.8 nM in each case. Also, the residence time at WDR5 protein turned out to be 4.29 min.

For the compound `CN1CCN(c2ccc(-c3cc(CN4CCNCC4)ccc3F)cc2NC(=O)c2c[nH]c(=O)cc2C(F)(F)F)CC1` [Example 72, N-(2′-fluoro-4-(4-methylpiperazin-1-yl)-5′-(piperazin-1-ylmethyl)-[1,1′-biphenyl]-3-yl)-6-oxo-4-(trifluoromethyl)-1,6-dihydropyridine-3-carboxamide], the IC50 at MLL1-WRAD2 complex is 5930 nM; in the experiment with MV4-11 cells, greater than 10000 nM. Moreover, the Kd at WDR5 protein (setting [1]) and on WDR5 protein (setting [2]) was 5.1 nM in each case. In addition, the residence time at WDR5 protein was found to be 1.16 min.

(Values after patent publication US11174250B2, “Substituted carboxamides as inhibitors of WDR5 protein-protein binding” (PROPELLON THERAPEUTICS INC., priority 2016, dated 2021).)
